Test [1] concerns the target T1, Serine/threonine-protein kinase PLK1 (Homo sapiens, UniProt P53350). Kind of test: Displacement of biotin-Ahx-PMQSpTPLN from myc-tagged Plk1 in cytosolic lysates (unknown origin) preincubated for 1 hr followed by biotinylated probe addition and measured after 1 hr by ELISA. The class given is subcellular, Cytosol.
In test [2] the target is T1, Serine/threonine-protein kinase PLK1. Briefly: Displacement of FITC-miniPEG-FDPPLHSpTA from full length Plk1 (unknown origin) preincubated for 30 mins followed by fluorescent probe addition and measured after 30 mins by fluorescence polarization assay.

Where a SMILES comes first, the peptide text is derived from it. [ ]: non-standard residue; d: D form. The star is where a group is joined. BI2536acyl = CC[C@@H]1C(=O)N(C)c2cnc(Nc3ccc(C(=O)*)cc3OC)nc2N1C1CCCC1; His(π-(CH2)8Ph) = N[C@@H](Cc1cncn1CCCCCCCCc1ccccc1)C(=O)O; pT = C[C@@H](OP(=O)(O)O)[C@H](N)C(=O)O; AEEA = NCCOCCOCC(=O)O

T1 sequence (P53350 whole entry): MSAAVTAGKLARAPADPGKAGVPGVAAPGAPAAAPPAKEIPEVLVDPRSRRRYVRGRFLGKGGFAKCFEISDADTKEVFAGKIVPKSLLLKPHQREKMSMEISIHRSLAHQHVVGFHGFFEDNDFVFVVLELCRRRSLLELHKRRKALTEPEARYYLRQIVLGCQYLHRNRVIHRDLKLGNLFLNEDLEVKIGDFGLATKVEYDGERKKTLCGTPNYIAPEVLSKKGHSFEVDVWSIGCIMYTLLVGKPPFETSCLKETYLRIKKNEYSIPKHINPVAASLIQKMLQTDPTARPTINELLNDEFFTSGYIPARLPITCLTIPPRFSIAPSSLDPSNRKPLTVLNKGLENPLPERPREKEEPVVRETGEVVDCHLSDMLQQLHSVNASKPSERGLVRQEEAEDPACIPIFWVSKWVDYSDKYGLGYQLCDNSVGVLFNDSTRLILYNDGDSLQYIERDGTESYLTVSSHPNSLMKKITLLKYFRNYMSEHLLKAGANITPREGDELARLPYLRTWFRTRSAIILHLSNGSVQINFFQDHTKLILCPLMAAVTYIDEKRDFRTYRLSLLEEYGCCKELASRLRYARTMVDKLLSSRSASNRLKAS

In the case of `CC[C@@H]1C(=O)N(C)c2cnc(Nc3ccc(C(=O)NCCCC[C@H](NC(C)=O)C(=O)NCCOCCOCC(=O)NCCOCCOCC(=O)NCCOCCOCC(=O)NCCOCCOCC(=O)N4CCC[C@H]4C(=O)N[C@@H](CC(C)C)C(=O)N[C@@H](Cc4cncn4CCCCCCCCc4ccccc4)C(=O)N[C@@H](CO)C(=O)N[C@H](C(N)=O)[C@@H](C)O)cc3OC)nc2N1C1CCCC1` (Ac-K(BI2536acyl)[AEEA][AEEA][AEEA][AEEA]PL[His(π-(CH2)8Ph)]ST-NH2), the IC50 result in test [1] and in test [2] was “Not_active” throughout.

Turning to `CC[C@@H]1C(=O)N(C)c2cnc(Nc3ccc(C(=O)NCCCC[C@H](NC(=O)COCCOCCNC(=O)COCCOCCNC(=O)COCCOCCNC(=O)COCCOCCNC(=O)[C@@H](NC(=O)[C@H](CO)NC(=O)[C@H](Cc4c[nH]cn4)NC(=O)[C@H](CC(C)C)NC(=O)[C@@H]4CCCN4C(C)=O)[C@@H](C)O)C(N)=O)cc3OC)nc2N1C1CCCC1` (Ac-PLHST[AEEA][AEEA][AEEA][AEEA]K(BI2536acyl)-NH2), the IC50 result in test [1] and in test [2] was “Not_active” each time.

Regarding `CC[C@@H]1C(=O)N(C)c2cnc(Nc3ccc(C(=O)NCCCC[C@H](NC(=O)COCCOCCNC(=O)[C@@H](NC(=O)[C@H](CO)NC(=O)[C@H](Cc4cncn4CCCCCCCCc4ccccc4)NC(C)=O)[C@@H](C)OP(=O)(O)O)C(N)=O)cc3OC)nc2N1C1CCCC1` (Ac-[His(π-(CH2)8Ph)]S[pT][AEEA]K(BI2536acyl)-NH2), the IC50 entry in test [1] is given as “Not_active”.

Take `CC[C@@H]1C(=O)N(C)c2cnc(Nc3ccc(C(=O)NCCCC[C@H](NC(=O)COCCOCCNC(=O)COCCOCCNC(=O)COCCOCCNC(=O)COCCOCCNC(=O)[C@@H](NC(=O)[C@H](CO)NC(=O)[C@H](Cc4cncn4CCCCCCCCc4ccccc4)NC(=O)[C@H](CC(C)C)NC(=O)[C@@H]4CCCN4C(C)=O)[C@@H](C)O)C(N)=O)cc3OC)nc2N1C1CCCC1` (Ac-PL[His(π-(CH2)8Ph)]ST[AEEA][AEEA][AEEA][AEEA]K(BI2536acyl)-NH2): the IC50 entry in test [1] and in test [2] was “Not_active” throughout.

On to `CC[C@@H]1C(=O)N(C)c2cnc(Nc3ccc(C(=O)NCCCC[C@H](NC(C)=O)C(=O)NCCOCCOCC(=O)NCCOCCOCC(=O)NCCOCCOCC(=O)NCCOCCOCC(=O)N4CCC[C@H]4C(=O)N[C@@H](CC(C)C)C(=O)N[C@@H](Cc4c[nH]cn4)C(=O)N[C@@H](CO)C(=O)N[C@H](C(N)=O)[C@@H](C)O)cc3OC)nc2N1C1CCCC1` (Ac-K(BI2536acyl)[AEEA][AEEA][AEEA][AEEA]PLHST-NH2), for which the IC50 result in test [1] and in test [2] was “Not_active” each time.

Take `CC[C@@H]1C(=O)N(C)c2cnc(Nc3ccc(C(=O)NCCCC[C@H](NC(C)=O)C(=O)NCCOCCOCC(=O)N[C@@H](Cc4cncn4CCCCCCCCc4ccccc4)C(=O)N[C@@H](CO)C(=O)N[C@H](C(N)=O)[C@@H](C)OP(=O)(O)O)cc3OC)nc2N1C1CCCC1` (Ac-K(BI2536acyl)[AEEA][His(π-(CH2)8Ph)]S[pT]-NH2): in test [1], the IC50 entry is recorded as “Not_active”.

The values above are taken from ChEMBL document CHEMBL6109049, “Fine-tuning probes for fluorescence polarization binding assays of bivalent ligands against polo-like kinase 1 using full-length protein” (Bioorg Med Chem, 2025).
